Data as given in patent publication US20130115256A1, “METHODS FOR TREATING OR PREVENTING VASCULAR GRAFT FAILURE” (priority 2010, published 2013).

Columns and labels:
PRAK = molecular target: T1, PRAK (Homo sapiens, UniProt Q8IW41); assay: PRAK radiometric kinase assay; format: biochemical; details: MMI-0100 100 μM; remaining kinase activity
T1 construct: purchased Millipore (KinaseProfiler service)
T1 sequence (Q8IW41 1-473): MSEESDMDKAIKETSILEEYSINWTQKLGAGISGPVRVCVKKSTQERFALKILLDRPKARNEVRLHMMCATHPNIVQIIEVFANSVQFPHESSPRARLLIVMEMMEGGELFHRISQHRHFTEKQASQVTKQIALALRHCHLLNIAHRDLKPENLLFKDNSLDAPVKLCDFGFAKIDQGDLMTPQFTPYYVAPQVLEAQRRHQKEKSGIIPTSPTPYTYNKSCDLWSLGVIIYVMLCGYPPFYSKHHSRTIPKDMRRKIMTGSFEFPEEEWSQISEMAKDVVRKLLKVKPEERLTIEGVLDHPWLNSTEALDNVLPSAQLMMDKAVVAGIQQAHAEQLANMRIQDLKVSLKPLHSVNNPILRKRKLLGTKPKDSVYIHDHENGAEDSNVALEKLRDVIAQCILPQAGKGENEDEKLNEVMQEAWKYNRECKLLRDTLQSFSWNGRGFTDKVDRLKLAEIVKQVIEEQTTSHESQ
Excerpt: A commercial radiometric assay service was used to test the specificity and potency of MMI-0100 ([…]; SEQ ID NO: 1) by measuring its half maximal inhibitory concentrations (IC50). This quantitative assay measures how much MK2 inhibitor (MMI-0100; […] (SEQ ID NO: 1)) is needed to inhibit 50% of a given biological process or component of a process (i.e., an enzyme, cell, or cell receptor). Specifically, in these assays, a positively charged substrate is phosphorylated with a radiolabeled phosphate group from an ATP if the kinase is not inhibited by an inhibitor peptide. The positively charged substrate then is attracted to a negatively charged filter membrane, quantified with a scintillation counter, and compared to a 100% activity control. ATP concentrations within 15 μM of the apparent Km for ATP were chosen since an ATP concentration near the Km may allow for the kinases to have the same relative amount of phosphorylation activity. The individual conditions for each radiometric assay are as follows. […]
(§1) IC50 values for inhibitor peptides were determined using Millipore's IC50 Profiler Express service. […]

[1] = system: mouse lung endothelial cells (MLEC); assay: MCP-1 production immunoassay; format: cell-based; details: even at high doses
Description: Monocyte Chemotractic Protein-1 (MCP-1) production from mouse lung endothelial cells (MLEC) was analyzed using conditioned culture medium by Quantikine® Mouse CCL/JE/MCP-1 Immunoassay (R&D Systems) following the manufacturer's instructions. Briefly, the assay employs a quantitative sandwich enzyme immunoassay technique in which a monoclonal antibody specific for MCP-1 has been pre-coated onto a microplaste. Standards and samples are pipetted into the wells and any MCP-1 present is bound by the immobilized antibody. After washing away any unbound substances, an enzyme-linked polyclonal antibody specific for MCP-1 is added to the wells. Following a wash to remove any unbound antibody-enzyme reagent, a substrate solution is added to the wells and color develops in proportion to the amount of MCP-1 bound in the initial step. The color development is stopped and the intensity of the color is measured at 450 nm, with wavelength correction at 540 nm or 570 nm.

MKK3 = molecular target: T2, MKK3 (Homo sapiens, UniProt P46734); assay: MKK3 kinase activity (data not shown); format: biochemical; details: concentration that inhibits >95% of MK2
T2 sequence (P46734 1-347): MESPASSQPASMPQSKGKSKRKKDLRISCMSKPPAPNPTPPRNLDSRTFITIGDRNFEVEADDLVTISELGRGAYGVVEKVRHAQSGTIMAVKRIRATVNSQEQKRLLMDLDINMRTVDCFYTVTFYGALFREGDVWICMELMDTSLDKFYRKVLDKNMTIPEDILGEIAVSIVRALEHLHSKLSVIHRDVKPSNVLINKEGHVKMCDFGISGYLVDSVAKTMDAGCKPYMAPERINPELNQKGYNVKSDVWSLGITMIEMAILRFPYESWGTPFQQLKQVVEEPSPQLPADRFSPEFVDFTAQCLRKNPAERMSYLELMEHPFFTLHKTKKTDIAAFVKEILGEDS
Excerpt: (§2) A commercial radiometric assay service was used to test the specificity and potency of MMI-0100 ([…]; SEQ ID NO: 1) by measuring its half maximal inhibitory concentrations (IC50). This quantitative assay measures how much MK2 inhibitor (MMI-0100; […] (SEQ ID NO: 1)) is needed to inhibit 50% of a given biological process or component of a process (i.e., an enzyme, cell, or cell receptor). Specifically, in these assays, a positively charged substrate is phosphorylated with a radiolabeled phosphate group from an ATP if the kinase is not inhibited by an inhibitor peptide. The positively charged substrate then is attracted to a negatively charged filter membrane, quantified with a scintillation counter, and compared to a 100% activity control. ATP concentrations within 15 μM of the apparent Km for ATP were chosen since an ATP concentration near the Km may allow for the kinases to have the same relative amount of phosphorylation activity. The individual conditions for each radiometric assay are as follows.
IC50 values for inhibitor peptides were determined using Millipore's IC50 Profiler Express service. The IC50 value was estimated from a 10-point curve of one-half log dilutions. […]

MEK1 = molecular target: T3, MEK1 (Homo sapiens, UniProt Q02750); assay: MEK1 radiometric kinase assay; format: biochemical; details: MMI-0100 100 μM; remaining kinase activity
T3 construct: purchased Millipore (KinaseProfiler service)
Excerpt: as §2
The reaction was initiated by adding the MgATP. After incubation for 40 minutes at room temperature, 5 μl of this incubation mix was used to initiate the MAPK2 radiometric assay whose reaction condition was the same as the condition for p38 MAPK assay described above.
as §1

[2] = system: mouse lung endothelial cells (MLEC); assay: Cell apoptosis analysis (annexin V flow cytometry); format: cell-based; details: any dose; 24 hours
Description: The apoptotic effect of MMI-0100 ([…]; SEQ ID NO: 1) on mouse lung endothelial cells (MLEC) was measured at 24 hours after MMI-0100 ([…]; SEQ ID NO: 1) treatment. MLEC were removed from the tissue culture plate by trypsin, and re-suspended at a concentration of 1.0×10^6 cells/ml. Apoptotic cells were detected by AlexaFluor® 488 annexin V/Dead Cell Apoptosis Kit (Invitrogen) using flow cytometry sorting analysis.

YARAAARQARAKALARQLGVAA [MMI-0100]
Percent Activity, PRAK (PRAK): 100%
MCP-1 production [1]: did not stimulate MCP-1 production
reduction in MKK3 activity (MKK3): no reduction
Percent Activity, MEK1 (MEK1): 68%
EC apoptosis [2]: did not induce EC apoptosis
